Reference: patent US20070027216A1, “NOVEL HYDROCHLORIDE SALTS OF LEVODOPA” (priority 2005, published 2007)

Assays:
Aqueous solubility = type: physicochemical; conditions: water, 25 °C; at about 25 degrees C.
Method: To a slurry containing levodopa (15.1 g, 0.0766 mol) in acetonitrile (750 ml) was added concentrated hydrochloric acid (7.0 mL, 0.0781 mol) dropwise with stirring. Addition of hydrochloric acid to the slurry caused it to form a clear solution followed by precipitation of levodopa hydrochloride. The solid material was collected by filtration and dried under a flow of nitrogen overnight. The solid was characterized using PXRD (Bruker), DSC, TGA and Raman spectroscopy.

[1] = In vitro dissolution of fast-dissolve tablets in SGF (simulated gastric fluid); type: physicochemical; conditions: 50 rpm, FIG. 5; for time to realize >90% dissolved: about 400 mg tablet, target 100 mg levodopa, lactose filler, 200 mL SGF pH 2.0, 37 degrees C., average of N=2, normalized by final concentration
Method: A dissolution study for a levodopa fast-dissolve tablet feasibility study was completed. All tablets were about 400 mg total weight and contained a target of 100 mg levodopa in four forms: levodopa free base, levodopa hydrochloride salt (from Example 1), levodopa free base jet milled (5-10 micrometers), and levodopa free base jet milled granulated with HPC-L solution. The filler for the tablet was Pharmatose DCL 14 (lactose). The dissolution was carried out in 200 mL of SGF (simulated gastric fluid) at 37 degrees C. using an overhead mixer at a speed of 50 rpm. […] In the above described dissolution study, the SGF was prepared using the following preparation: Dissolved 4 grams sodium chloride and 2 grams Triton X-100 in 2000 mL HPLC grade water. Added 1 N hydrochloric acid to the solution until the pH reached 2.0.

[2] = temperature not given; cited from earlier work

| time to >90% dissolved, free base versus hydrochloride salt ([1]; same tablets, 200 mL SGF, 37 degrees C.) | Compound | solubility (Aqueous solubility) [mg/mL] | time to realize >90% dissolved [1] | aqueous solubility of the free base [2] |
| --- | --- | --- | --- | --- |
| – | Cl.NC(Cc1ccc(O)c(O)c1)C(=O)O (single isomer, unassigned; (-)) [levodopa hydrochloride salt, (−)-2-amino-3-(3,4-dihydroxyphenyl)propanoic acid hydrochloride] | 11 to 16 | ~10 min | – |
| about twice as long | N[C@@H](Cc1ccc(O)c(O)c1)C(=O)O [levodopa free base, (−)-2-amino-3-(3,4-dihydroxyphenyl)propanoic acid] | – | about 20 minutes | about 1.65 mg/mL |
